Test results published in patent publication US20040037843A1, “Inducing cellular immune responses to prostate cancer antigens using peptide and nucleic acid compositions” (priority 2003, published 2004).
Where two headings read alike, the source gives them in different places.

What was measured:
[1] = test system: .221A2.1 peptide-loaded target cells and cells expressing endogenous antigen; experiment: Primary in vitro CTL induction with peptide-pulsed DC, CTL lytic activity by 51Cr release; format: cell-based, human; settings: immunogenicity, positive/tested; for A2 native: CTL recognition of native (wild-type) target; for A2 peptide: CTL recognition of the peptide
Method: Testing was performed using the following methodology:
Cells that express an antigen of interest, or transfectants comprising the gene encoding the antigen of interest, can be used as target cells to test the ability of peptide-specific CTLs to recognize endogenous antigen.
The monocytes are purified by plating 10×10^6 PBMC/well in a 6-well plate. After 2 hours at 37° C., the non-adherent cells are removed by gently shaking the plates and aspirating the supernatants. The wells are washed a total of three times with 3 ml RPMI to remove most of the non-adherent and loosely adherent cells. Three ml of complete medium containing 50 ng/ml of GM-CSF and 1,000 U/ml of IL-4 are then added to each well. TNFα is added to the DCs on day 6 at 75 ng/ml and the cells are used for CTL induction cultures on day 7.
Induction of CTL with DC and Peptide: CD8+ T-cells are isolated by positive selection with Dynal imnmunomagnetic beads (Dynabeads® M-450) and the detacha-bead® reagent. Typically about 200-250×10^6 PBMC are processed to obtain 24×10^6 CD8^+T-cells (enough for a 48-well plate culture). Briefly, the PBMCs are thawed in RPMI with 30 μg/ml DNAse, washed once with PBS containing 1% human AB serum and resuspended in PBS/1% AB serum at a concentration of 20×10^6 cells/ml. The magnetic beads are washed 3 times with PBS/AB serum, added to the cells (140 μl beads/20×10^6 cells) and incubated for 1 hour at 4° C. with continuous mixing. The beads and cells are washed 4× with PBS/AB serum to remove the nonadherent cells and resuspended at 100×10^6 cells/ml (based on the original cell number) in PBS/AB serum containing 100 μl/ml detacha-bead® reagent and 30 μg/ml DNAse. The mixture is incubated for 1 hour at room temperature with continuous mixing. The beads are washed again with PBS/AB/DNAse to collect the CD8+ T-cells. The DC are collected and centrifuged at 1300 rpm for 5-7 minutes, washed once with PBS with 1% BSA, counted and pulsed with 40 μg/ml of peptide at a cell concentration of 1-2×10^6/ml in the presence of 3 μg/ml β2-microglobulin for 4 hours at 20° C. The DC are then irradiated (4,200 rads), washed 1 time with medium and counted again.
Setting up induction cultures: 0.25 ml cytokine-generated DC (@1×10^5 cells/ml) are co-cultured with 0.25 ml of CD8+ T-cells (@2×10^6 cell/ml) in each well of a 48-well plate in the presence of 10 ng/ml of IL-7. Recombinant human IL10 is added the next day at a final concentration of 10 ng/ml and rhuman IL2 is added 48 hours later at 10 IU/mL.
Restimulation of the induction cultures with peptide-pulsed adherent cells: Seven and fourteen days after the primary induction the cells are restimulated with peptide-pulsed adherent cells. The PBMCS are thawed and washed twice with RPMI and DNAse. The cells are resuspended at 5×10^6 cells/ml and irradiated at ˜4200 rads. The PBMCs are plated at 2×10^6 in 0.5 ml complete medium per well and incubated for 2 hours at 37° C. The plates are washed twice with RPMI by tapping the plate gently to remove the nonadherent cells and the adherent cells pulsed with 10 μg/ml of peptide in the presence of 3 μg/ml β2 microglobulin in 0.25 ml RPMI/5% AB per well for 2 hours at 37° C. Peptide solution from each well is aspirated and the wells are washed once with RPMI. Most of the media is aspirated from the induction cultures (CD8+ cells) and brought to 0.5 ml with fresh media. The cells are then transferred to the wells containing the peptide-pulsed adherent cells. Twenty four hours later rhuman IL10 is added at a final concentration of 10 ng/ml and rhuman IL2 is added the next day and again 2-3 days later at 50 IU/ml (Tsai et al., Critical Reviews in Immunology 18(1-2):65-75, 1998). Seven days later the cultures are assayed for CTL activity in a ^51Cr release assay. In some experiments the cultures are assayed for peptide-specific recognition in the in situ IFNγ ELISA at the time of the second restimulation followed by assay of endogenous recognition 7 days later. […]

HLA-A*0201 = HLA-A*0201 (Homo sapiens, UniProt P04439, D140Y/D185E/D98H/E176V/E277Q/G131W/G231S/I119V/I121R/I166T/I218V/L300P/L318F/N151K/N90K/P208A/P217A/Q86G/Q94H/R138H/R169H/T345S); experiment: HLA class I binding assay, purified HLA, inhibition of 125I-labelled probe peptide; settings: Table XXII group headings ≦ 200 nM / > 200 nM, binding to HLA-A*0201

IC50 (HLA-A*0201; read-out: Binding affinity)	SMILES	A2 native [1]	A2 peptide [1]	other results
–	CC(C)C[C@H](NC(=O)[C@H](C)N)C(=O)NCC(=O)N[C@H](C(=O)N[C@H](C(=O)N[C@@H](CS)C(=O)N[C@@H](Cc1ccc(O)cc1)C(=O)N[C@H](C(=O)O)C(C)C)[C@@H](C)O)[C@@H](C)O [Peptide 1389.14]	1/3	2/3	–
–	CC[C@H](C)[C@H](NC(=O)[C@H](CO)NC(=O)[C@H](CC(C)C)NC(=O)[C@H](CC(C)C)NC(=O)[C@@H](N)CC(C)C)C(=O)N[C@@H](C)C(=O)N[C@@H](CC(C)C)C(=O)N[C@@H](CO)C(=O)N[C@H](C(=O)O)C(C)C [Peptide 1418.13]	2/2	2/2	–
–	CC[C@H](C)[C@H](NC(=O)[C@H](Cc1c[nH]c2ccccc12)NC(=O)[C@@H](NC(=O)[C@@H](NC(=O)[C@H](CO)NC(=O)[C@H](CC(C)C)NC(=O)[C@@H](NC(=O)[C@H](CC(C)C)NC(=O)[C@@H](N)Cc1ccccc1)[C@@H](C)O)C(C)C)[C@@H](C)O)C(=O)NCC(=O)N[C@H](C(=O)O)C(C)C [Peptide 1419.27]	3/3	3/3	–
–	CSCC[C@H](NC(=O)[C@H](C)NC(=O)[C@H](CO)NC(=O)[C@H](CCSC)NC(=O)[C@H](CC(C)C)NC(=O)[C@@H](N)[C@@H](C)O)C(=O)N[C@H](C(=O)N[C@@H](CC(N)=O)C(=O)N[C@@H](CC(C)C)C(=O)O)[C@@H](C)O [Peptide 1177.01]	–	2/2	–
–	CSCC[C@H](NC(=O)[C@H](CC(C)C)NC(=O)[C@@H](N)CC(=O)O)C(=O)N[C@@H](CC(C)C)C(=O)N[C@@H](CC(C)C)C(=O)N[C@@H](CCCNC(=N)N)C(=O)N[C@@H](CC(C)C)C(=O)N[C@@H](CO)C(=O)N[C@@H](CCC(=O)O)C(=O)N1CCC[C@H]1C(=O)N[C@H](C(=O)O)C(C)C [Peptide 1419.13]	2/2	2/2	–
–	CC(C)C[C@H](NC(=O)[C@H](CC(C)C)NC(=O)[C@H](Cc1ccccc1)NC(=O)[C@H](Cc1ccccc1)NC(=O)CNC(=O)CNC(=O)[C@H](C)NC(=O)[C@H](CC(C)C)NC(=O)[C@@H](N)C(C)C)C(=O)O [Peptide 1126.10]	–	1/2	–
–	CC(C)C[C@H](NC(=O)[C@H](Cc1ccccc1)NC(=O)[C@H](Cc1ccccc1)NC(=O)CNC(=O)CNC(=O)[C@H](C)NC(=O)[C@H](CC(C)C)NC(=O)[C@@H](N)C(C)C)C(=O)N[C@H](C(=O)O)C(C)C [Peptide 1389.20]	1/2	1/2	–
–	CSCC[C@H](NC(=O)[C@H](CC(C)C)NC(=O)[C@H](CCC(N)=O)NC(=O)[C@H](CC(=O)O)NC(=O)[C@H](CC(N)=O)NC(=O)[C@H](CCSC)NC(=O)[C@H](CCSC)NC(=O)[C@@H](N)CCCNC(=N)N)C(=O)N[C@@H](Cc1ccccc1)C(=O)N[C@@H](CC(C)C)C(=O)O [Peptide 1126.06]	–	1/1	–
–	CC[C@H](C)[C@H](NC(=O)[C@H](CO)NC(=O)[C@@H]1CCCN1C(=O)[C@H](CC(C)C)NC(=O)CN)C(=O)N1CCC[C@H]1C(=O)N[C@H](C(=O)N[C@@H](Cc1c[nH]cn1)C(=O)N1CCC[C@H]1C(=O)N[C@H](C(=O)O)C(C)C)C(C)C [Peptide 1389.24]	3/4	4/4	–
–	CSCC[C@H](NC(=O)[C@@H](N)CC(C)C)C(=O)N[C@@H](Cc1ccc(O)cc1)C(=O)N[C@@H](CO)C(=O)N[C@@H](CC(C)C)C(=O)N[C@H](C(=O)N[C@@H](Cc1c[nH]cn1)C(=O)N[C@@H](CC(N)=O)C(=O)N[C@@H](CC(C)C)C(=O)O)C(C)C [Peptide 1126.14]	–	3/3	–
–	CC(C)C[C@H](NC(=O)[C@H](Cc1c[nH]c2ccccc12)NC(=O)[C@H](Cc1ccccc1)NC(=O)[C@H](Cc1ccccc1)NC(=O)[C@@H](NC(=O)[C@@H](N)CC(C)C)[C@@H](C)O)C(=O)N[C@@H](CC(=O)O)C(=O)N[C@@H](CCCNC(=N)N)C(=O)N[C@@H](CO)C(=O)N[C@H](C(=O)O)C(C)C [Peptide 1418.23]	2/3	3/3	–
–	CC(C)C[C@H](NC(=O)[C@H](CC(=O)O)NC(=O)[C@@H](NC(=O)[C@H](CS)NC(=O)[C@H](CCC(N)=O)NC(=O)[C@H](CC(C)C)NC(=O)[C@@H](N)CCCCN)C(C)C)C(=O)N[C@@H](Cc1c[nH]cn1)C(=O)N[C@H](C(=O)N[C@H](C(=O)O)C(C)C)C(C)C [Peptide 1419.24]	1/2	1/2	–
≤ 0.2 µM	CC[C@H](C)[C@H](NC(=O)[C@H](Cc1ccccc1)NC(=O)[C@H](C)NC(=O)[C@H](CCCNC(=N)N)NC(=O)[C@H](CCC(=O)O)NC(=O)[C@H](CC(C)C)NC(=O)[C@H](Cc1ccccc1)NC(=O)[C@H](CCSC)NC(=O)[C@H](CC(C)C)NC(=O)[C@@H](N)CCC(N)=O)C(=O)O [PSM.667]	–	–	–
–	CC(C)C[C@H](NC(=O)[C@H](CC(C)C)NC(=O)CNC(=O)[C@H](CC(N)=O)NC(=O)[C@H](Cc1ccc(O)cc1)NC(=O)[C@@H](NC(=O)[C@H](CC(=O)O)NC(=O)[C@H](CC(C)C)NC(=O)[C@H](C)N)C(C)C)C(=O)O [PAP.299]	–	–	IC50 (HLA-A*0201; Binding affinity): ≤ 0.2 µM
≤ 0.2 µM	CC(C)C[C@H](NC(=O)[C@H](Cc1ccccc1)NC(=O)[C@H](Cc1ccccc1)NC(=O)CNC(=O)CNC(=O)[C@H](C)NC(=O)[C@H](CC(C)C)NC(=O)[C@@H](NC(=O)[C@@H](N)CC(C)C)C(C)C)C(=O)O [PSM.26]	–	–	–
≤ 0.2 µM	CC(C)C[C@H](NC(=O)[C@@H](N)Cc1ccccc1)C(=O)N[C@@H](CC(N)=O)C(=O)N[C@@H](CCC(=O)O)C(=O)N[C@@H](CO)C(=O)N[C@@H](Cc1ccc(O)cc1)C(=O)N[C@@H](CCCCN)C(=O)N[C@@H](Cc1c[nH]cn1)C(=O)N[C@@H](CCC(=O)O)C(=O)N[C@@H](CCC(N)=O)C(=O)N[C@H](C(=O)O)C(C)C [PAP.92]	–	–	–
> 0.2 µM	CC(C)C[C@H](NC(=O)CN)C(=O)N[C@@H](CC(C)C)C(=O)NCC(=O)N[C@@H](CO)C(=O)N[C@H](C(=O)N[C@@H](CCC(=O)O)C(=O)N[C@@H](Cc1c[nH]c2ccccc12)C(=O)N[C@@H](C)C(=O)O)[C@@H](C)O [PSM.427]	–	–	–
> 0.2 µM	CC(C)C[C@H](NC(=O)[C@@H](N)CC(C)C)C(=O)N[C@@H](Cc1c[nH]cn1)C(=O)N[C@@H](CCC(=O)O)C(=O)N[C@H](C(=O)N[C@@H](CC(=O)O)C(=O)N[C@@H](CO)C(=O)N[C@@H](C)C(=O)N[C@H](C(=O)O)C(C)C)[C@@H](C)O [PSM.4]	–	–	–
> 0.2 µM	CC(C)C[C@H](NC(=O)[C@@H](N)CCCCN)C(=O)NCC(=O)N[C@@H](CO)C(=O)NCC(=O)N[C@@H](CC(N)=O)C(=O)N[C@@H](CC(=O)O)C(=O)N[C@@H](Cc1ccccc1)C(=O)N[C@@H](CCC(=O)O)C(=O)N[C@H](C(=O)O)C(C)C [PSM.514]	–	–	–
> 0.2 µM	CC(C)C[C@H](NC(=O)[C@H](Cc1ccccc1)NC(=O)[C@H](Cc1ccccc1)NC(=O)CNC(=O)CNC(=O)[C@H](C)NC(=O)[C@H](CC(C)C)NC(=O)[C@@H](NC(=O)[C@H](CC(C)C)NC(=O)[C@H](C)N)C(C)C)C(=O)O [PSM.25]	–	–	–
≤ 0.2 µM	CC(C)C[C@H](NC(=O)[C@H](CO)NC(=O)[C@H](CC(C)C)NC(=O)[C@H](CO)NC(=O)[C@H](C)NC(=O)[C@H](C)NC(=O)[C@H](CCCNC(=N)N)NC(=O)[C@H](C)NC(=O)[C@H](CC(C)C)NC(=O)[C@H](CC(C)C)NC(=O)[C@@H](N)CC(C)C)C(=O)O [PAP.6]	–	–	–
